The species named for one data set is Homo sapiens. In words: Inhibition of TGF-beta induced his tagged human SMAD2/human SMAD4 interaction at 100 uM incubated for 1 hr followed by anti-His-HRP addition and measured after 1 hr by blocking assay relative to control. The conditions noted are these: time 2.0 hrs.
In data set [1] the test system is LX-2. Description: Antifibrotic activity against TGF-beta1 stimulated human LX-2 cells assessed as reduction in alpha-SMA expression at 100 uM incubated for 24 hrs by Western blotting analysis. The data set is classed as functional, cell-based. (In western blotting, separated proteins are transferred to a membrane and probed.)
Data set [2] deals with LX-2. In words: Antifibrotic activity against TGF-beta1 stimulated human LX-2 cells assessed as reduction in COL1A1 expression at 100 uM incubated for 24 hrs by Western blotting analysis. The format is functional, cell-based.
The subject of data set [3] is LX-2. In words: Downregulation of TGF-beta induced alpha-SMA level in human LX-2 cells at 100 uM by Immunoblot analysis. The data set is classed as functional, cell-based.
Data set [4] concerns LX-2. In words: Downregulation of TGF-beta induced P65 phosphorylation level in human LX-2 cells at 100 uM by Immunoblot analysis. The data set is classed as functional, cell-based.
The nature of data set [5]: Stability in rat serum measured up to 48 hrs by LC-MS/MS analysis. The format is ADME, cell-free.
In data set [6] the test system is LX-2. Description: Downregulation of TGF-beta induced COL1A1 level in human LX-2 cells at 100 uM by Immunoblot analysis. The data set is classed as functional, cell-based.
For data set [7], the system named is LX-2. Description: Downregulation of TGF-beta induced SMAD2 phosphorylation level in human LX-2 cells at 100 uM by Immunoblot analysis. The format is functional, cell-based.
In data set [8] the test system is LX-2. Description: Inhibition of TGF-beta induced SMAD3 phosphorylation level in human LX-2 cells at 100 uM by Western blot analysis. The format is functional, cell-based.
For data set [9], the system named is Mus musculus. Description: Anti-fibrotic activity against CCl4-induced liver fibrosis male C57BL/6J mouse model assessed as effect on SMAD1/5/8 phosphorylation in liver at 400 microg/kg, ip measured for 3 weeks by Western blot analysis. The format is functional, organism-based. The conditions noted are these: dose 400.0 µg/kg.
Data set [10] concerns LX-2. Description: Inhibition of TGF-beta induced SMAD1/5/8 phosphorylation level in human LX-2 cells at 100 uM by Western blot analysis. The format is functional, cell-based.
The test system of data set [11] is Mus musculus. Description: Anti-fibrotic activity against CCl4-induced liver fibrosis male C57BL/6J mouse model assessed as effect on SMAD3 phosphorylation in liver at 400 microg/kg, ip measured for 3 weeks by Western blot analysis. The format is functional, organism-based. The settings on record: dose 400.0 µg/kg.

Calls of active or inactive are those of the source. No cut-off for these calls is given here.

`C[C@@H]1NC(=O)[C@@H]2CCCN2C(=O)[C@H](CCCNC(=N)N)NC(=O)[C@H]([C@@H](C)O)NC(=O)[C@H](CO)NC(=O)[C@H]([C@@H](C)O)NC(=O)[C@H](CCC(=O)O)NC(=O)[C@H](Cc2c[nH]c3ccccc23)NC(=O)[C@H](Cc2ccccc2)NC(=O)[C@@H](CO)NC1=O` returned an inhibition in the data set listed under Homo sapiens of 27.9%. Also, the result in the data set with LX-2 [1] and in the data set with LX-2 [2] was Active.
H-TRPASDWETS-OH: the inhibition in the data set filed under Homo sapiens amounted to 23.6%. In addition, the outcome with LX-2 [1] and in the data set on LX-2 [2] was inactive.
In the data set filed under Homo sapiens, H-TRAASFWETS-OH showed an inhibition of 16.3%. In addition, the outcome in the data set with LX-2 [1] and with LX-2 [2] was inactive.
The compound H-TRPAQFWETS-OH came in with an inhibition in the data set filed under Homo sapiens of 31.9%. The outcome with LX-2 [1] and in the data set on LX-2 [2] was inactive.
H-TRPASFWETS-NH2 displayed an inhibition in the data set filed under Homo sapiens of 49.8%. Also, the result with LX-2 [1] and in the data set with LX-2 [2] was inactive.
H-TRPAFFWETS-OH showed an inhibition in the data set filed under Homo sapiens of 34.7%. Besides, the outcome with LX-2 [1] and with LX-2 [2] was inactive.
For the compound H-TRPASYWETS-OH, the inhibition in the data set listed under Homo sapiens came out at 20.7%. Besides, the result in the data set with LX-2 [1] and with LX-2 [2] was inactive.
As for H-TRPASNWETS-OH, the inhibition in the data set filed under Homo sapiens was 31.3%. Moreover, the result in the data set with LX-2 [1] and in the data set on LX-2 [2] was inactive.
Regarding `C[C@H](NC(=O)[C@@H]1CCCN1C(=O)[C@H](CCCNC(=N)N)NC(=O)[C@@H](N)[C@@H](C)O)C(=O)N[C@@H](CO)C(=O)N[C@H](Cc1ccccc1)C(=O)N[C@@H](Cc1c[nH]c2ccccc12)C(=O)N[C@@H](CCC(=O)O)C(=O)N[C@H](C(=O)N[C@@H](CO)C(=O)O)[C@@H](C)O`, the outcome in the data set with LX-2 [3], in the data set on LX-2 [4], in the data set on LX-2 [1], in the data set with LX-2 [2], with LX-2 [6] and in the data set with LX-2 [7] was Active. For the same compound, the inhibition in the data set filed under Homo sapiens is 71.3%. In data set [5], the Stability result is listed as “Stable”.
In the case of H-TRPAEFWETS-OH, in the data set filed under Homo sapiens, the inhibition stood at 24.2%. Besides, the result in the data set with LX-2 [1] and in the data set with LX-2 [2] was inactive.
As to H-ARPASFWETS-OH, in the data set listed under Homo sapiens, the inhibition was 12.5%. For the same compound, the outcome in the data set on LX-2 [1] and with LX-2 [2] was inactive.
In the data set filed under Homo sapiens, `C[C@@H]1NC(=O)[C@@H]2CCCN2C(=O)[C@H](CCCNC(=N)N)NC(=O)[C@H]([C@@H](C)O)NC(=O)[C@H](CO)NC(=O)[C@H]([C@@H](C)O)NC(=O)[C@H](CCC(=O)O)NC(=O)[C@H](Cc2c[nH]c3ccccc23)NC(=O)[C@H](Cc2ccccc2)NC(=O)[C@H](CO)NC1=O` came in with an inhibition of 42.7%. Also, the Activity entry in the data set with LX-2 [1] and with LX-2 [2] was “Active; Compound Showed Marginal Reduction Compared To M10” throughout.
H-TRPASWWETS-OH gave an inhibition in the data set filed under Homo sapiens of 43.8%. In addition, the result in the data set with LX-2 [1] and with LX-2 [2] was inactive.
H-TRPAWFWETS-OH: the inhibition in the data set listed under Homo sapiens was 21.3%. The outcome with LX-2 [1] and in the data set on LX-2 [2] was inactive.
On to H-TRPANFWETS-OH, for which the inhibition in the data set filed under Homo sapiens amounted to 42.6%. Also, the result with LX-2 [1] and in the data set on LX-2 [2] was inactive.
In the data set listed under Homo sapiens, H-TRPASFWATS-OH displayed an inhibition of 11.2%. Moreover, the result with LX-2 [1] and with LX-2 [2] was inactive.
H-TRPAAFWETS-OH: the inhibition in the data set filed under Homo sapiens is 46.2%. Moreover, the result in the data set on LX-2 [1] and in the data set on LX-2 [2] was Active.
As to H-TRPARFWETS-OH, the inhibition in the data set listed under Homo sapiens was 17.4%. Besides, the result in the data set on LX-2 [1] and with LX-2 [2] was inactive.
On to H-TRPASFAETS-OH, for which the inhibition in the data set filed under Homo sapiens amounted to 6.5%. The outcome in the data set on LX-2 [1] and with LX-2 [2] was inactive.
Take H-TRPASFWETA-OH: the inhibition in the data set listed under Homo sapiens stood at 14.5%. For the same compound, the result in the data set on LX-2 [1] and in the data set on LX-2 [2] was inactive.
Turning to H-TRPASRWETS-OH, in the data set listed under Homo sapiens, the inhibition stood at 27.1%. In addition, the outcome in the data set on LX-2 [1] and in the data set with LX-2 [2] was inactive.
Compound H-TRPASEWETS-OH came in with an inhibition in the data set filed under Homo sapiens of 10.9%. The result with LX-2 [1] and with LX-2 [2] was inactive.
For Ac-TRPASFWETS-OH, the inhibition in the data set listed under Homo sapiens was 51.9%. The outcome in the data set on LX-2 [1] and in the data set on LX-2 [2] was inactive.
Regarding H-TRPASQWETS-OH, the inhibition in the data set listed under Homo sapiens is 32.4%. Also, the outcome with LX-2 [1] and with LX-2 [2] was inactive.
Compound H-TRPADFWETS-OH showed an inhibition in the data set listed under Homo sapiens of 6.1%. Also, the result in the data set on LX-2 [1] and with LX-2 [2] was inactive.
Compound H-TRPAKFWETS-OH returned an inhibition in the data set filed under Homo sapiens of 32.5%. For the same compound, the outcome in the data set on LX-2 [1] and with LX-2 [2] was inactive.
Take H-TAPASFWETS-OH: the inhibition in the data set listed under Homo sapiens was 8.6%. Also, the outcome in the data set on LX-2 [1] and with LX-2 [2] was inactive.
In the case of H-TRPASKWETS-OH, in the data set listed under Homo sapiens, the inhibition was determined as 35.2%. Also, the outcome in the data set on LX-2 [1] and in the data set on LX-2 [2] was inactive.
H-TRPASAWETS-OH yielded an inhibition in the data set filed under Homo sapiens of 52.7%. For the same compound, the result with LX-2 [1] and in the data set on LX-2 [2] was Active.
Consider `C[C@H](NC(=O)[C@@H]1CCCN1C(=O)[C@H](CCCNC(=N)N)NC(=O)[C@@H](N)[C@@H](C)O)C(=O)N[C@H](CO)C(=O)N[C@@H](Cc1ccccc1)C(=O)N[C@@H](Cc1c[nH]c2ccccc12)C(=O)N[C@@H](CCC(=O)O)C(=O)N[C@H](C(=O)N[C@@H](CO)C(=O)O)[C@@H](C)O`, for which the inhibition in the data set listed under Homo sapiens was 60.5%. Also, the result with LX-2 [1] and in the data set on LX-2 [2] was Active.
In turn, H-TRPASFWEAS-OH displayed an inhibition in the data set listed under Homo sapiens of 9.3%. Moreover, the outcome in the data set with LX-2 [1] and with LX-2 [2] was inactive.
With `C[C@H](NC(=O)[C@@H]1CCCN1C(=O)[C@H](CCCNC(=N)N)NC(=O)[C@@H](N)[C@@H](C)O)C(=O)N[C@@H](CO)C(=O)N[C@@H](Cc1ccccc1)C(=O)N[C@@H](Cc1c[nH]c2ccccc12)C(=O)N[C@@H](CCC(=O)O)C(=O)N[C@H](C(=O)N[C@@H](CO)C(=O)O)[C@@H](C)O`, the inhibition entry in the data set with LX-2 [8] and in the data set on LX-2 [10] was “inactive” each time. The inhibition in the data set listed under Homo sapiens amounted to 52.5%. The outcome in the data set with Mus musculus [9] and with Mus musculus [11] was inactive. Moreover, the result in the data set on LX-2 [1] and in the data set with LX-2 [2] was Active.

Usually inhibition stands for the share of the control response that was lost under treatment.

Values taken from ChEMBL document CHEMBL6177985, “Discovery of Novel Cyclic Peptides as SMAD2-SMAD4 Interaction Inhibitors for the Treatment of Hepatic Fibrosis” (J Med Chem, 2025).
